# In ChEMBL document CHEMBL4610104, “Dipleosporalones A and B, Dimeric Azaphilones from a Marine-Derived Pleosporales sp. Fungus” (J Nat Prod, 2020):
# Experiments:
# A549 [1] = assay: Potency index, ratio of pinophilin-B IC50 to test compound IC50 against human A549 cells; assay type: functional
# MCF7 [2] = assay: Potency index, ratio of pinophilin-B IC50 to test compound IC50 against human MCF7 cells; assay type: functional
# MDA-MB-231 [3] = assay: Potency index, ratio of pinophilin-B IC50 to test compound IC50 against human MDA-MB-231 cells; assay type: functional
# MGC-803 [4] = assay: Potency index, ratio of pinophilin-B IC50 to test compound IC50 against human MGC803 cells; assay type: functional
# MGC-803 [5] = assay: Cytotoxicity against human MGC803 cells by MTT assay; assay type: functional, cell-based
# MCF7 [6] = assay: Cytotoxicity against human MCF7 cells by MTT assay; assay type: functional, cell-based
# HeLa [7] = assay: Cytotoxicity against human HeLa cells by MTT assay; assay type: functional, cell-based
# HeLa [8] = assay: Potency index, ratio of pinophilin-B IC50 to test compound IC50 against human HeLa cells; assay type: functional
# A549 [9] = assay: Cytotoxicity against human A549 cells by MTT assay; assay type: functional, cell-based
# MDA-MB-231 [10] = assay: Cytotoxicity against human MDA-MB-231 cells by MTT assay; assay type: functional, cell-based
compound,measurement,setting,value
Cc1cc(O)cc(O)c1C(=O)O[C@H]1[C@@H]2COC([C@H]3[C@H](CO)[C@H]4C(=O)[C@@](C)(O)[C@@H](OC(=O)c5c(C)cc(O)cc5O)[C@@H]5COC(/C=C/CO)=C[C@]453)=CC2=CC(=O)[C@@]1(C)O,Ratio IC50,A549 [1],30 - 90
same,Ratio IC50,MCF7 [2],30 - 90
same,Ratio IC50,MDA-MB-231 [3],30 - 90
same,Ratio IC50,MGC-803 [4],30 - 90
same,IC50,MGC-803 [5],1.3 µM
same,IC50,MCF7 [6],2.1 µM
same,IC50,HeLa [7],2.5 µM
same,Ratio IC50,HeLa [8],30 - 90
same,IC50,A549 [9],1 µM
same,IC50,MDA-MB-231 [10],1.9 µM
Cc1cc(O)cc(O)c1C(=O)O[C@H]1[C@@H]2COC([C@H]3[C@H](CO)[C@@H](CO)[C@@H]3C3=CC4=CC(=O)[C@@](C)(O)[C@@H](OC(=O)c5c(C)cc(O)cc5O)[C@@H]4CO3)=CC2=CC(=O)[C@@]1(C)O,Ratio IC50,A549 [1],30 - 90
same,Ratio IC50,MCF7 [2],30 - 90
same,Ratio IC50,MDA-MB-231 [3],30 - 90
same,Ratio IC50,MGC-803 [4],30 - 90
same,IC50,MGC-803 [5],2 µM
same,IC50,MCF7 [6],> 10 µM
same,IC50,HeLa [7],3 µM
same,Ratio IC50,HeLa [8],30 - 90
same,IC50,A549 [9],3.5 µM
same,IC50,MDA-MB-231 [10],3.8 µM
Cc1cc(O)cc(O)c1C(=O)O[C@H]1[C@@H]2COC(/C=C/CO)=CC2=CC(=O)[C@@]1(C)O [PINOPHILIN B],IC50,MGC-803 [5],84 µM
same,IC50,MCF7 [6],95 µM
same,IC50,HeLa [7],78 µM
same,IC50,A549 [9],89 µM
same,IC50,MDA-MB-231 [10],97 µM
